Test results published in ChEMBL document CHEMBL4680145, “Expansion of chemical space based on a pyrrolo[1,2-a]pyrazine core: Synthesis and its anticancer activity in prostate cancer and breast cancer cells” (Eur J Med Chem, 2020).
Activity calls are given as the source filed them. No cut-off for these calls is given here.

Assays:
[1] = system: PC-3; assay: Cytotoxicity against human PC-3 cells assessed as cell viability at 30 uM incubated for 48 hrs by MTS assay relative to control; type: functional; settings: read-out: Activity
[2] = system: MCF7; assay: Cytotoxicity against human MCF7 cells assessed as cell viability at 30 uM incubated for 48 hrs by MTS assay relative to control; type: functional; settings: read-out: Activity
[3] = system: PC-3; assay: Cytotoxicity against human PC-3 cells assessed as reduction in cell viability incubated for 48 hrs by MTS assay; type: functional, cell-based; settings: PC-3, 48 h
[4] = system: MCF7; assay: Antimigratory activity against human MCF7 cells assessed as reduction in cell migration measured every 2 hrs for 24 hrs by wound healing assay; type: functional, cell-based; settings: dose 1-10 µM
[5] = system: MCF7; assay: Cytotoxicity against human MCF7 cells assessed as reduction cell viability incubated for 48 hrs by MTS assay; type: functional, cell-based; settings: MCF7, 48 h
[6] = system: PC-3; assay: Antimigratory activity against human PC-3 cells assessed as reduction in cell migration measured every 2 hrs for 24 hrs by wound healing assay; type: functional, cell-based; settings: dose 1-10 µM
[7] = system: MCF7; assay: Induction of apoptosis in human MCF7 cells assessed as increase in caspase-3 activity incubated for 24 hrs by caspase-3 substrate and Hoechst 33342 dye based fluorescence assay; type: functional, cell-based; settings: dose 1-10 µM
[8] = system: MCF7; assay: Induction of apoptosis in human MCF7 cells assessed as increase in caspase-3 activity at 10 uM incubated for 24 hrs by Hoechst 33342 staining based fluorescence microscopy; type: functional, cell-based
[9] = system: PC-3; assay: Induction of apoptosis in human PC-3 cells assessed as increase in cleaved PARP incubated for 24 hrs by Western blot analysis; type: functional, cell-based; settings: dose 3-30 µM
[10] = system: MCF7; assay: Induction of apoptosis in human MCF7 cells assessed as increase in caspase-3 activity at 10 uM incubated for 24 hrs in presence of Ac-DEVD-CHO by Hoechst 33342 dye based fluorescence assay; type: functional, cell-based
[11] = system: PC-3; assay: Induction of apoptosis in human PC-3 cells assessed as increase in caspase-3 activity incubated for 24 hrs by caspase-3 substrate and Hoechst 33342 dye based fluorescence assay; type: functional, cell-based; settings: dose 1-10 µM
[12] = system: PC-3; assay: Induction of apoptosis in human PC-3 cells assessed as increase in caspase-3 activity at 10 uM incubated for 24 hrs in presence of Ac-DEVD-CHO by Hoechst 33342 dye based fluorescence assay; type: functional, cell-based
[13] = system: PC-3; assay: Induction of apoptosis in human PC-3 cells assessed as increase in caspase-3 activity at 10 uM incubated for 24 hrs by Hoechst 33342 staining based fluorescence microscopy; type: functional, cell-based
[14] = system: MCF7; assay: Induction of apoptosis in human MCF7 cells assessed as increase in cleaved PARP incubated for 24 hrs by Western blot analysis; type: functional, cell-based

| SMILES | viability at 30 µM [1] [%] | viability at 30 µM [2] [%] | other results |
| --- | --- | --- | --- |
| O=C(c1ccc(F)cc1)[C@@H]1[C@@H](c2ccc(Br)cc2)N=Cc2cccn21 (relative stereo) | 18.5 | 31.1 | IC50 [3]: 16400 nM |
| O=C(c1ccccc1)[C@@H]1[C@@H](c2ccc(Br)cc2)N=Cc2cccn21 (relative stereo) | 83.3 | 99.9 | – |
| COc1ccc(C(=O)[C@@H]2[C@@H](c3ccc(Br)cc3)N=Cc3cccn32)cc1 (relative stereo) | 96.4 | 100 | – |
| COc1ccccc1[C@H]1N=Cc2cccn2[C@@H]1C(=O)c1ccc(F)cc1 (relative stereo) | 86.4 | 69.3 | – |
| COc1cccc(C(=O)[C@@H]2[C@@H](c3ccncc3)N=Cc3cccn32)c1 (relative stereo) | 91.4 | 95.5 | – |
| O=C(c1ccc(F)cc1)[C@@H]1[C@@H](c2ccncc2)N=Cc2cccn21 (relative stereo) | 100 | 78.5 | – |
| O=C(C[N+]1=Cc2cccn2[C@H](C(=O)c2ccc(Br)cc2)[C@H]1c1ccccc1)c1ccc(Cl)cc1 (relative stereo) | 80.8 | 82.5 | – |
| COc1ccccc1[C@H]1N=Cc2cccn2[C@@H]1C(=O)c1ccc(Cl)cc1 (relative stereo) | 99.5 | 96.5 | – |
| O=C(c1ccc(Br)cc1)[C@@H]1[C@@H](c2ccccc2)[N+](Cc2ccccc2)=Cc2cccn21 (relative stereo) | 97.9 | 98.1 | – |
| O=C(c1ccccc1)[C@@H]1[C@@H](c2ccc([N+](=O)[O-])cc2)N=Cc2cccn21 (relative stereo) | 86.9 | 85.1 | – |
| C[N+]1=Cc2cccn2[C@H](C(=O)c2ccc(Br)cc2)[C@H]1c1ccccc1 (relative stereo) | 97.9 | 98.1 | – |
| COc1ccccc1[C@H]1N=Cc2cccn2[C@@H]1C(=O)c1ccccc1 (relative stereo) | 95.5 | 107 | – |
| COc1ccc(C(=O)[C@@H]2[C@@H](c3ccc(C)cc3)N=Cc3cccn32)cc1 (relative stereo) | 81.3 | 77.4 | – |
| COc1ccc([C@@H]2[C@@H](C(=O)c3ccc(Br)cc3)n3cccc3C=[N+]2CC(=O)c2ccccc2)cc1 (relative stereo) | 6.3 | 6.4 | inhibition [4]: Dose-dependent effect; IC50 [5]: 2450 nM; inhibition [6]: Dose-dependent effect; IC50 [3]: 2190 nM |
| O=C(C[N+]1=Cc2cccn2[C@H](C(=O)c2ccc(F)cc2)[C@H]1c1ccc(Br)cc1)c1ccccc1 (relative stereo) | 3.4 | 3.6 | inhibition [4]: Dose-dependent effect; Activity [7]: Dose-dependent effect; IC50 [5]: 1950 nM; Activity [8]: Active; Activity [9]: Dose-dependent effect; inhibition [6]: Dose-dependent effect; Activity [10]: inactive; Activity [11]: Dose-dependent effect; Activity [12]: inactive; Activity [13]: Active; Activity [14]: Dose-dependent effect; IC50 [3]: 1180 nM |
| O=C(c1ccccc1)[C@@H]1[C@@H](c2ccco2)N=Cc2cccn21 (relative stereo) | 59 | 95.3 | – |
| O=C(C[N+]1=Cc2cccn2[C@H](C(=O)c2ccc(Br)cc2)[C@H]1c1ccccc1)c1ccc(F)cc1 (relative stereo) | 10.7 | 33.8 | – |
| O=C(c1ccc(Br)cc1)[C@@H]1[C@@H](c2ccccc2)N=Cc2cccn21 (relative stereo) | 68.5 | 66.9 | – |
| COc1cc(OC)cc([C@H]2N=Cc3cccn3[C@@H]2C(=O)c2ccccc2)c1 (relative stereo) | 106 | 102 | – |
| O=C(c1ccc(Br)cc1)[C@@H]1[C@@H](c2ccccn2)N=Cc2cccn21 (relative stereo) | 73.2 | 67.5 | – |
| O=C(c1ccccc1)[C@@H]1[C@@H](c2ccccc2)N=Cc2cccn21 (relative stereo) | 106 | 104 | – |
| Cc1ccc([C@H]2N=Cc3cccn3[C@@H]2C(=O)c2ccc(Cl)cc2)cc1 (relative stereo) | 104 | 100 | – |
